In assay [1] the target is Acetylcholinesterase (Homo sapiens, UniProt P22303).
Description: Binding affinity to acetylcholinesterase (unknown origin)
The target of assay [2] is T1, Acetylcholinesterase (Rattus norvegicus, UniProt P37136).
T1 sequence (P37136 whole entry): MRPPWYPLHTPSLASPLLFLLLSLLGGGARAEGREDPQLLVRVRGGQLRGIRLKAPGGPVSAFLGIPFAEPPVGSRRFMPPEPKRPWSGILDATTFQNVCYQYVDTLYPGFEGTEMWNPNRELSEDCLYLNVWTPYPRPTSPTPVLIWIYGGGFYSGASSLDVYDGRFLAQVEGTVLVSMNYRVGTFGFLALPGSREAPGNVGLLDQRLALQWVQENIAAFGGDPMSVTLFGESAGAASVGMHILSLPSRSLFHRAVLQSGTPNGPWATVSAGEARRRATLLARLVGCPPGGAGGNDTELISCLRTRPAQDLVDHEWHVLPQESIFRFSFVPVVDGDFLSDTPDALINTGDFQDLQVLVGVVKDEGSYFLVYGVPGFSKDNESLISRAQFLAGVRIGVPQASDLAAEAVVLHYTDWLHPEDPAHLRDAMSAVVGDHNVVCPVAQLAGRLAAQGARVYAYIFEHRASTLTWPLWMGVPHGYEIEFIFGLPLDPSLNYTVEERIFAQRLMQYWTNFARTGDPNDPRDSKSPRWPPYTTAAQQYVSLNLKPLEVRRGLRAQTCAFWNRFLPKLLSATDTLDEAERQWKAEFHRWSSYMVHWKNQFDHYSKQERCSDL
Description: Inhibition of acetylcholinesterase in Rattus norvegicus (rat) cortex by Ellman method

As a reminder, the Ki is the equilibrium dissociation constant of an inhibitor or competing ligand from its target. Lower therefore signals tighter binding. What is called IC50 is the concentration that gives 50% inhibition.

Chain of Acetylcholinesterase (Homo sapiens, UniProt P22303) (P22303 whole entry): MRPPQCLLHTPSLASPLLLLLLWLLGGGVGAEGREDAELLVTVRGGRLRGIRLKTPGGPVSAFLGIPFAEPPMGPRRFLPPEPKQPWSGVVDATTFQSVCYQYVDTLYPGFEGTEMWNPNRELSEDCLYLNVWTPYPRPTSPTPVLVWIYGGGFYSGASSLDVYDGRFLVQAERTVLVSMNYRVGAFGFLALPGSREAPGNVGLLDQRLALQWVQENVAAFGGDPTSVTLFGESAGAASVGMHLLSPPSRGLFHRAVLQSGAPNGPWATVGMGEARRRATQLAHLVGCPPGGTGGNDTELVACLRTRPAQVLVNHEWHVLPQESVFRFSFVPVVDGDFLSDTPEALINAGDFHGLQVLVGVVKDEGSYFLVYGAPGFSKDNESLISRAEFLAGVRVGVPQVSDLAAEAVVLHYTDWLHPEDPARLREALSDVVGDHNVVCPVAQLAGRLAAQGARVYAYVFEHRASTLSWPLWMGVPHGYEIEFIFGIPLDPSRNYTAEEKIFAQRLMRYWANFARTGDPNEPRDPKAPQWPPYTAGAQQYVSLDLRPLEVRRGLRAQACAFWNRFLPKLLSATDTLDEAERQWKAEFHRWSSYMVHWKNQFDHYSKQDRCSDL

Turning to `COc1ccc(C(=O)NC2CCN(Cc3c(F)cccc3Cl)CC2)cc1OC`, the Ki at Acetylcholinesterase [1] turned out to be 54.8 nM.

Turning to `O=C(NC1CCN(Cc2ccccc2)CC1)c1ccc2c(c1)OCCCO2`, at Acetylcholinesterase [1], the affinity, expressed as Ki, was 95.3 nM.

The compound `COc1cc2c(cc1OC)C(=O)C(Oc1ccc(C(C)N(C)C)cc1)C2` (stereo not drawn) gave a Ki at Acetylcholinesterase [1] of 543 nM.

In the case of `COc1cc2c(cc1OC)C(=O)C(Oc1ccc(CN3CCOCC3)cc1)C2` (stereo not drawn), the affinity on Acetylcholinesterase [1] corresponds to a Ki of 514 nM.

Compound `COc1cc2c(cc1OC)C(=O)C(Oc1ccc(CN3CCCCC3)cc1)C2` (stereo not drawn) had a Ki at Acetylcholinesterase [1] of 403 nM. This Ki and that of the compound before are within 1.5-fold of each other.

As for `COc1cc2c(cc1OC)C(=O)C(Oc1ccc(C(C)N3CCCCC3)cc1)C2` (stereo not drawn), the Ki on Acetylcholinesterase [1] came out at 106 nM.

Regarding `CCN(CC)Cc1ccc(OC2Cc3cc(OC)c(OC)cc3C2=O)cc1` (stereo not drawn), the affinity on Acetylcholinesterase [1] corresponds to a Ki of 1340 nM.

For the compound `COc1cc2c(cc1OC)C(=O)C(Oc1ccc(C(C)N3CCCC3)cc1)C2` (stereo not drawn), the Ki on Acetylcholinesterase [1] came out at 403 nM.

For the compound `COc1cc2c(cc1OC)C(=O)C(Oc1ccc(CN3CCCC3)cc1)C2` (stereo not drawn), the Ki on Acetylcholinesterase [1] came out at 257 nM.

On to `CCN(CC)C(C)c1cccc(OC2Cc3cc(OC)c(OC)cc3C2=O)c1` (stereo not drawn), for which the Ki on Acetylcholinesterase [1] stood at 865 nM.

`CCN(CC)Cc1cccc(OC2Cc3cc(OC)c(OC)cc3C2=O)c1` (stereo not drawn) had a Ki at Acetylcholinesterase [1] of 1590 nM.

As to `CCN(CC)C(C)c1ccc(OC2Cc3cc(OC)c(OC)cc3C2=O)cc1` (stereo not drawn), at Acetylcholinesterase [1], the Ki was determined as 1330 nM.

For the compound `COc1cc2c(cc1OC)C(=O)C(Oc1cccc(C(C)N3CCN(C)CC3)c1)C2` (stereo not drawn), the Ki on Acetylcholinesterase [1] was determined as 77.7 nM.

At Acetylcholinesterase [1], `COc1cc2c(cc1OC)C(=O)C(Oc1cccc(CN3CCCCC3)c1)C2` (stereo not drawn) showed a Ki of 266 nM.

As to `COc1cc2c(cc1OC)C(=O)C(Oc1cccc(CN(C)C)c1)C2` (stereo not drawn), on Acetylcholinesterase [1], the Ki amounted to 1000 nM.

`COc1cc2c(cc1OC)C(=O)C(Oc1cccc(CN3CCOCC3)c1)C2` (stereo not drawn): the Ki at Acetylcholinesterase [1] is 793 nM.

Regarding `COc1cc2c(cc1OC)C(=O)C(Oc1cccc(C(C)N3CCCC3)c1)C2` (stereo not drawn), the affinity at Acetylcholinesterase [1] corresponds to a Ki of 138 nM.

Regarding `COc1cc2c(cc1OC)C(=O)C(Oc1cccc(C(C)N3CCOCC3)c1)C2` (stereo not drawn), the Ki on Acetylcholinesterase [1] stood at 118 nM.

At Acetylcholinesterase [1], `O=C(CC1S/C(=N/c2ccc(C3CCCCC3)cc2)NC1=O)Nc1ccc(OC(F)(F)F)cc1` (stereo not drawn) had a Ki of 897 nM. This Ki lies about 7.6-fold higher than the previous one.

`CC(C)(C)c1ccc(/C(N)=N/OC(=O)c2cnn(-c3ccc([N+](=O)[O-])cc3)c2C(F)(F)F)cc1` showed a Ki at Acetylcholinesterase [1] of 521 nM.

`N/C(=N\OC(=O)c1cnn(-c2ccc([N+](=O)[O-])cc2)c1C(F)(F)F)c1ccc(Cl)cc1`: affinity on Acetylcholinesterase [1] was put at a Ki of 2350 nM.

Consider `O=C(Nc1ccc(OC(F)(F)F)cc1)N1CCCN(CCc2ccccc2)CC1`, for which the affinity at Acetylcholinesterase [1], expressed as Ki, was 241 nM.

`Cc1c(S(=O)(=O)c2ccc(Cl)cc2)csc1C(=O)NC1CCN(Cc2ccccc2)CC1`: on Acetylcholinesterase [1], the affinity corresponds to a Ki of 21.3 nM.

`O=C(CN1CCN(Cc2ccccc2)CC1)Nc1ccc(C(F)(F)F)cc1Cl` yielded a Ki on Acetylcholinesterase [1] of 47.3 nM.

Compound `O=C(Nc1ccc(OC(F)(F)F)cc1)OC1CN(C(c2ccccc2)c2ccccc2)C1` yielded a Ki on Acetylcholinesterase [1] of 22.8 nM.

Take `CSc1cccc(/N=C2\NC(=O)C(CC(=O)Nc3ccc(F)c(F)c3)S2)c1` (stereo not drawn): the affinity at Acetylcholinesterase [1], expressed as Ki, was 130 nM.

As to `O=c1c(Cl)c(N2CCN(c3ccc(C(F)(F)F)cn3)CC2)cnn1-c1c(Cl)cc(C(F)(F)F)cc1Cl`, affinity on Acetylcholinesterase [1] was put at a Ki of 2870 nM.

In the case of `O=[N+]([O-])c1ccc(OCC(O)CN2CCCN(c3nc4ccc(Cl)cc4s3)CC2)cc1` (stereo not drawn), the Ki at Acetylcholinesterase [1] was determined as 263 nM. Against the preceding compound, the Ki is about 11-fold lower.

`CC(CN1CCN(Cc2ccccc2)CC1)N(C(=O)c1cccc([N+](=O)[O-])c1)c1ccccn1` (stereo not drawn) gave a Ki at Acetylcholinesterase [1] of 61.4 nM.

Take `N/C(=N\OC(=O)c1cnn(-c2ccc([N+](=O)[O-])cc2)c1C(F)(F)F)c1ccc(C(F)(F)F)cc1`: the Ki on Acetylcholinesterase [1] is 2070 nM.

At Acetylcholinesterase [1], `COc1cc2c(cc1OC)C(=O)C(Oc1cccc(CN3CCN(C)CC3)c1)C2` (stereo not drawn) showed a Ki of 62.1 nM.

Regarding `COc1cc2c(cc1OC)C(=O)C(Oc1ccc(CN3CCN(C)CC3)cc1)C2` (stereo not drawn), at Acetylcholinesterase [1], the Ki came to 69.5 nM.

`COc1cc2c(cc1OC)C(=O)C(Oc1ccc(C(C)N3CCOCC3)cc1)C2` (stereo not drawn) showed a Ki on Acetylcholinesterase [1] of 217 nM.

For `COc1cc2c(cc1OC)C(=O)C(Oc1ccc(C(C)N3CCN(C)CC3)cc1)C2` (stereo not drawn), on Acetylcholinesterase [1], the Ki amounted to 228 nM.

On to `COc1cc2c(cc1OC)C(=O)C(Oc1cccc(C(C)N3CCCCC3)c1)C2` (stereo not drawn), for which the inhibition constant (Ki) on Acetylcholinesterase [1] worked out at 38.2 nM. Compared with the last compound, the Ki is about 6-fold lower.

The compound `COc1cc2c(cc1OC)C(=O)C(Oc1ccc(CN(C)C)cc1)C2` (stereo not drawn) displayed a Ki on Acetylcholinesterase [1] of 209 nM. Against the preceding compound, the Ki is about 5.5-fold higher.

On Acetylcholinesterase [1], `COc1cc2c(cc1OC)C(=O)/C(=C/c1cccc(CN(C)C)c1)C2` had an inhibitory constant (Ki) of 62.2 nM.

`COc1cc2c(cc1OC)C(=O)/C(=C/c1ccc(CN(C)C)cc1)C2` yielded a Ki at Acetylcholinesterase [1] of 617 nM.

At Acetylcholinesterase [1], `CCN(C)Cc1cccc(/C=C2\Cc3cc(OC)c(OC)cc3C2=O)c1` displayed a Ki of 235 nM.

At Acetylcholinesterase [1], `CCN(C)Cc1ccc(/C=C2\Cc3cc(OC)c(OC)cc3C2=O)cc1` yielded a Ki of 920 nM. Also, the midpoint of inhibition against Acetylcholinesterase [2], the IC50, lay at 263 nM.

At Acetylcholinesterase [1], `CCN(CC)Cc1ccc(/C=C2\Cc3cc(OC)c(OC)cc3C2=O)cc1` showed a Ki of 453 nM.

As to `COc1cc2c(cc1OC)C(=O)/C(=C/c1cccc(CN3CCCC3)c1)C2`, the affinity on Acetylcholinesterase [1], expressed as Ki, was 127 nM. It took 234 nM to reach half-maximal inhibition against Acetylcholinesterase [2] (IC50).

In turn, `COc1cc2c(cc1OC)C(=O)/C(=C/c1ccc(CN3CCCC3)cc1)C2` showed a Ki at Acetylcholinesterase [1] of 198 nM. This lies in the sub-micromolar range.

In the case of `COc1cc2c(cc1OC)C(=O)C(Cc1cccc(CN3CCCCC3)c1)C2` (stereo not drawn), on Acetylcholinesterase [1], the Ki is 59.3 nM.

As for `CCN(CC)Cc1cccc(CC2Cc3cc(OC)c(OC)cc3C2=O)c1` (stereo not drawn), on Acetylcholinesterase [1], the Ki worked out at 21.7 nM. Against the preceding compound, the Ki is about 2.7-fold lower.

In the case of `CCN(CC)Cc1ccc(CC2Cc3cc(OC)c(OC)cc3C2=O)cc1` (stereo not drawn), at Acetylcholinesterase [1], the Ki is 1040 nM.

As to `COc1cc2c(cc1OC)C(=O)C(Cc1cccc(CN3CCCC3)c1)C2` (stereo not drawn), the Ki at Acetylcholinesterase [1] stood at 22.3 nM.

`COc1cc2c(cc1OC)C(=O)C(Cc1ccc(CN3CCCC3)cc1)C2` (stereo not drawn) had a Ki on Acetylcholinesterase [1] of 773 nM. The IC50 on Acetylcholinesterase [2] is 155 nM.

Consider `CCN(C)Cc1ccc(CC2Cc3cc(OC)c(OC)cc3C2=O)cc1` (stereo not drawn), for which, at Acetylcholinesterase [1], the Ki is 918 nM. This lies in the sub-micromolar range.

At Acetylcholinesterase [1], `COc1cc2c(cc1OC)C(=O)C(Cc1cccc(CN(C)C)c1)C2` (stereo not drawn) gave a Ki of 525 nM.

At Acetylcholinesterase [1], `COc1cc2c(cc1OC)C(=O)/C(=C/c1cccc(CN3CCCCC3)c1)C2` had a Ki of 70.9 nM. This compound also had an IC50 against Acetylcholinesterase [2] of 162 nM.

Regarding `COc1cc2c(cc1OC)C(=O)/C(=C/c1ccc(CN3CCCCC3)cc1)C2`, at Acetylcholinesterase [1], the affinity, expressed as Ki, was 95.2 nM. Further, inhibition against Acetylcholinesterase [2] was half-maximal at 102 nM (IC50).

Compound `COc1cc2c(cc1OC)C(=O)C(Cc1ccc(CN3CCCCC3)cc1)C2` (stereo not drawn) displayed a Ki at Acetylcholinesterase [1] of 73.8 nM. This compound had an IC50 against Acetylcholinesterase [2] of 123 nM.

Turning to `CCN(C)Cc1cccc(CC2Cc3cc(OC)c(OC)cc3C2=O)c1` (stereo not drawn), the Ki on Acetylcholinesterase [1] was found to be 507 nM.

Take `CCN(CC)Cc1cccc(/C=C2\Cc3cc(OC)c(OC)cc3C2=O)c1`: on Acetylcholinesterase [1], affinity was put at a Ki of 237 nM. Besides, at Acetylcholinesterase [2], the IC50 is 447 nM.

On to `COc1cc2c(cc1OC)C(=O)C(Oc1cccc(C(C)N(C)C)c1)C2` (stereo not drawn), for which the Ki on Acetylcholinesterase [1] is 400 nM.

The values are drawn from ChEMBL document CHEMBL3046949, “New molecular scaffolds for the design of Alzheimers acetylcholinesterase inhibitors identified using ligand- and receptor-based virtual screening” (Med Chem Res, 2013).
